Data reported in ChEMBL document CHEMBL1201862, “PubChem BioAssay data set” (2004).
Values belong to the compound of their own block, whether it stands above or below them. The source made the active and inactive calls.

Tests used:
[1] = HIV Env cell-cell fusion inhibitors, dose response, HIV entry, plate reader, dry powder (AID 687023); format: functional, cell-based
[2] = inhibitors of HIV Env-driven cell fusion, dose response, cherry-pick (AID 652057); format: functional, cell-based
[3] = CEM21 cell cytotoxicity, dose response, cytotoxicity control, plate reader, dry powder (AID 687026); format: functional, cell-based
[4] = inhibitors of clade B AD8 Env fusion, dose response, cell-based, cherry-pick (AID 652062); format: functional;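 note: luciferase signal from cell-cell fusion driven by HIV-1 clade B AD8 Env; potency is for inhibitors of fusion seen as a drop in luminescence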
Phospholipase D1 = Phospholipase D1 (Homo sapiens, UniProt Q13393); experiment: PLD1 Cellular Concentration Response Study.; format: functional
Chain of Phospholipase D1 (Q13393 whole entry): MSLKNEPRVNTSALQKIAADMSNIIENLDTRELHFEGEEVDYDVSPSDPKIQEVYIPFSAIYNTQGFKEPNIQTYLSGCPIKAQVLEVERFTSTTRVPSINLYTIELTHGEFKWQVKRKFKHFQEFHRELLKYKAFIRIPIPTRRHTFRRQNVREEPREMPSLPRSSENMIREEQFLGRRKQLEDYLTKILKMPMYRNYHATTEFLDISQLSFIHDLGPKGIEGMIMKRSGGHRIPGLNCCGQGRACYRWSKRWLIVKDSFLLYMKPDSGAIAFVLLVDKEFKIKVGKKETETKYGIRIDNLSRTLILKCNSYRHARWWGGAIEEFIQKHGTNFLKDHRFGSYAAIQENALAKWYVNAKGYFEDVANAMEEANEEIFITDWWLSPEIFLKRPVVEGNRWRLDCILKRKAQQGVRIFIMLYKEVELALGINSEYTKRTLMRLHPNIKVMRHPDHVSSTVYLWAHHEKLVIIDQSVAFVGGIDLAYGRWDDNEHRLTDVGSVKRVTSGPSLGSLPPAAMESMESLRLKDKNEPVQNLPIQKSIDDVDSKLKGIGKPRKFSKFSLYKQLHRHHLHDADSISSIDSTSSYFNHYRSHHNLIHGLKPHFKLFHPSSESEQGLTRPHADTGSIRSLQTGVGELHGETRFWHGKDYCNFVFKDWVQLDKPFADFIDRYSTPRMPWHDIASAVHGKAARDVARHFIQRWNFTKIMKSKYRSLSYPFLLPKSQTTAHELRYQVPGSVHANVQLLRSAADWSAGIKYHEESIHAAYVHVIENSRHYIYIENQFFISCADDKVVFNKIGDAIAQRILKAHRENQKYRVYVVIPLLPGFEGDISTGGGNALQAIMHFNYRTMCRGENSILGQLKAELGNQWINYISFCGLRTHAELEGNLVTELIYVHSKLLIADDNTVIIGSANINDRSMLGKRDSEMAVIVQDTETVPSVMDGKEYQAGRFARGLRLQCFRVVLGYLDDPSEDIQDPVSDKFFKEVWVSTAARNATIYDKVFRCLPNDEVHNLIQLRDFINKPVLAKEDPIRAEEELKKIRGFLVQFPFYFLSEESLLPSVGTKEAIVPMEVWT

Phospholipase D2 = Phospholipase D2 (Homo sapiens, UniProt O14939); experiment: PLD2 Cellular Concentration Response Study.; format: functional
Chain of Phospholipase D2 (O14939 whole entry): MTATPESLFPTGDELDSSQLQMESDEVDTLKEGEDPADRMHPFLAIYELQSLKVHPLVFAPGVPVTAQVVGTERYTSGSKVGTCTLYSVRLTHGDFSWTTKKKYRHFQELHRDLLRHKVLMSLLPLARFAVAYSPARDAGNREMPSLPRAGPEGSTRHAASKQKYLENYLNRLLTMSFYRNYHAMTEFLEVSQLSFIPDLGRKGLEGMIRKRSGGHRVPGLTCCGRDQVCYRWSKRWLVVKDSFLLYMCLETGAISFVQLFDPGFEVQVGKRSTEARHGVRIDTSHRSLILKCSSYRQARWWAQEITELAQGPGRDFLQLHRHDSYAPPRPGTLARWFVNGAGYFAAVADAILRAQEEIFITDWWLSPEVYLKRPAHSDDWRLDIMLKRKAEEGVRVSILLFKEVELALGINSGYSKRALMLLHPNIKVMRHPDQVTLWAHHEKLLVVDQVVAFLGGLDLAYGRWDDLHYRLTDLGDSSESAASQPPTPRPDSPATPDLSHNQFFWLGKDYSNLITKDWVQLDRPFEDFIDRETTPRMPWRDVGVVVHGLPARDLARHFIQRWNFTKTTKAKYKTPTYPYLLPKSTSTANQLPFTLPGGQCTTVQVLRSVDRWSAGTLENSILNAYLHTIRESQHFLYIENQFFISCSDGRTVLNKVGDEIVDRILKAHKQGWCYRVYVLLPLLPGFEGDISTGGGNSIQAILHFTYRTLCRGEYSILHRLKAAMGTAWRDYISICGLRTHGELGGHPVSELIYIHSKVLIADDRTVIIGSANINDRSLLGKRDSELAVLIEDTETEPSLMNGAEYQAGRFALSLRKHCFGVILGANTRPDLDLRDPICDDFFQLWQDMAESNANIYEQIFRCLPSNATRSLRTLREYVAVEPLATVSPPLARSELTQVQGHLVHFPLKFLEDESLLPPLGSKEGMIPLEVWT

[5] = HeLa cell cytotoxicity, dose response, cytotoxicity control for MgcRacGAP inhibitor project (AID 624300); format: functional
[6] = target: T1, Rac GTPase-activating protein 1 (Homo sapiens, UniProt Q9H0H5); experiment: MgcRacGAP GTPase-activating activity inhibitors, confirmation, biochemical, ADP Hunter fluorescence, primary and confirmatory (AID 624330); format: functional
T1 sequence (Q9H0H5 whole entry): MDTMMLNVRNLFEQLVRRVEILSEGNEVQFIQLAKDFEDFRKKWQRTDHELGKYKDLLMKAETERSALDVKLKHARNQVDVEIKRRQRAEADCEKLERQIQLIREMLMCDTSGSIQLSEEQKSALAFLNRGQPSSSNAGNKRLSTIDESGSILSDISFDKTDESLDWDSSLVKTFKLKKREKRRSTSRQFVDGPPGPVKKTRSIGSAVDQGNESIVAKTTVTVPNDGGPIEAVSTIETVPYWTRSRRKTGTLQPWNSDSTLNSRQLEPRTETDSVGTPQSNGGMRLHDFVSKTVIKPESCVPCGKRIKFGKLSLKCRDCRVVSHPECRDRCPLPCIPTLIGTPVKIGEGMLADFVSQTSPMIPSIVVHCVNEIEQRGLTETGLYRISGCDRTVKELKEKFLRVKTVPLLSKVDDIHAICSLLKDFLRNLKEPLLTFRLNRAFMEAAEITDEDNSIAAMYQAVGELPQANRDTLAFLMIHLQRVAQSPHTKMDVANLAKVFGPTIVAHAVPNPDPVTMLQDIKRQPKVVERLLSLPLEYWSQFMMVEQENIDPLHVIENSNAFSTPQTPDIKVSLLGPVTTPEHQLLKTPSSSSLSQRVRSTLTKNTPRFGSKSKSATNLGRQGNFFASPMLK

Fatty acid synthase [7] = target: T2, Fatty acid synthase (Homo sapiens, UniProt P49327); experiment: FAS thioesterase domain inhibitors, dose response, biochemical, kinetic fluorescence intensity (AID 624326); format: functional;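 note: rate of fluorescence rise from hydrolysis of a fluorogenic O-methyl fluorescein ester substrate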
T2 sequence (P49327 whole entry, the tested form may be a part): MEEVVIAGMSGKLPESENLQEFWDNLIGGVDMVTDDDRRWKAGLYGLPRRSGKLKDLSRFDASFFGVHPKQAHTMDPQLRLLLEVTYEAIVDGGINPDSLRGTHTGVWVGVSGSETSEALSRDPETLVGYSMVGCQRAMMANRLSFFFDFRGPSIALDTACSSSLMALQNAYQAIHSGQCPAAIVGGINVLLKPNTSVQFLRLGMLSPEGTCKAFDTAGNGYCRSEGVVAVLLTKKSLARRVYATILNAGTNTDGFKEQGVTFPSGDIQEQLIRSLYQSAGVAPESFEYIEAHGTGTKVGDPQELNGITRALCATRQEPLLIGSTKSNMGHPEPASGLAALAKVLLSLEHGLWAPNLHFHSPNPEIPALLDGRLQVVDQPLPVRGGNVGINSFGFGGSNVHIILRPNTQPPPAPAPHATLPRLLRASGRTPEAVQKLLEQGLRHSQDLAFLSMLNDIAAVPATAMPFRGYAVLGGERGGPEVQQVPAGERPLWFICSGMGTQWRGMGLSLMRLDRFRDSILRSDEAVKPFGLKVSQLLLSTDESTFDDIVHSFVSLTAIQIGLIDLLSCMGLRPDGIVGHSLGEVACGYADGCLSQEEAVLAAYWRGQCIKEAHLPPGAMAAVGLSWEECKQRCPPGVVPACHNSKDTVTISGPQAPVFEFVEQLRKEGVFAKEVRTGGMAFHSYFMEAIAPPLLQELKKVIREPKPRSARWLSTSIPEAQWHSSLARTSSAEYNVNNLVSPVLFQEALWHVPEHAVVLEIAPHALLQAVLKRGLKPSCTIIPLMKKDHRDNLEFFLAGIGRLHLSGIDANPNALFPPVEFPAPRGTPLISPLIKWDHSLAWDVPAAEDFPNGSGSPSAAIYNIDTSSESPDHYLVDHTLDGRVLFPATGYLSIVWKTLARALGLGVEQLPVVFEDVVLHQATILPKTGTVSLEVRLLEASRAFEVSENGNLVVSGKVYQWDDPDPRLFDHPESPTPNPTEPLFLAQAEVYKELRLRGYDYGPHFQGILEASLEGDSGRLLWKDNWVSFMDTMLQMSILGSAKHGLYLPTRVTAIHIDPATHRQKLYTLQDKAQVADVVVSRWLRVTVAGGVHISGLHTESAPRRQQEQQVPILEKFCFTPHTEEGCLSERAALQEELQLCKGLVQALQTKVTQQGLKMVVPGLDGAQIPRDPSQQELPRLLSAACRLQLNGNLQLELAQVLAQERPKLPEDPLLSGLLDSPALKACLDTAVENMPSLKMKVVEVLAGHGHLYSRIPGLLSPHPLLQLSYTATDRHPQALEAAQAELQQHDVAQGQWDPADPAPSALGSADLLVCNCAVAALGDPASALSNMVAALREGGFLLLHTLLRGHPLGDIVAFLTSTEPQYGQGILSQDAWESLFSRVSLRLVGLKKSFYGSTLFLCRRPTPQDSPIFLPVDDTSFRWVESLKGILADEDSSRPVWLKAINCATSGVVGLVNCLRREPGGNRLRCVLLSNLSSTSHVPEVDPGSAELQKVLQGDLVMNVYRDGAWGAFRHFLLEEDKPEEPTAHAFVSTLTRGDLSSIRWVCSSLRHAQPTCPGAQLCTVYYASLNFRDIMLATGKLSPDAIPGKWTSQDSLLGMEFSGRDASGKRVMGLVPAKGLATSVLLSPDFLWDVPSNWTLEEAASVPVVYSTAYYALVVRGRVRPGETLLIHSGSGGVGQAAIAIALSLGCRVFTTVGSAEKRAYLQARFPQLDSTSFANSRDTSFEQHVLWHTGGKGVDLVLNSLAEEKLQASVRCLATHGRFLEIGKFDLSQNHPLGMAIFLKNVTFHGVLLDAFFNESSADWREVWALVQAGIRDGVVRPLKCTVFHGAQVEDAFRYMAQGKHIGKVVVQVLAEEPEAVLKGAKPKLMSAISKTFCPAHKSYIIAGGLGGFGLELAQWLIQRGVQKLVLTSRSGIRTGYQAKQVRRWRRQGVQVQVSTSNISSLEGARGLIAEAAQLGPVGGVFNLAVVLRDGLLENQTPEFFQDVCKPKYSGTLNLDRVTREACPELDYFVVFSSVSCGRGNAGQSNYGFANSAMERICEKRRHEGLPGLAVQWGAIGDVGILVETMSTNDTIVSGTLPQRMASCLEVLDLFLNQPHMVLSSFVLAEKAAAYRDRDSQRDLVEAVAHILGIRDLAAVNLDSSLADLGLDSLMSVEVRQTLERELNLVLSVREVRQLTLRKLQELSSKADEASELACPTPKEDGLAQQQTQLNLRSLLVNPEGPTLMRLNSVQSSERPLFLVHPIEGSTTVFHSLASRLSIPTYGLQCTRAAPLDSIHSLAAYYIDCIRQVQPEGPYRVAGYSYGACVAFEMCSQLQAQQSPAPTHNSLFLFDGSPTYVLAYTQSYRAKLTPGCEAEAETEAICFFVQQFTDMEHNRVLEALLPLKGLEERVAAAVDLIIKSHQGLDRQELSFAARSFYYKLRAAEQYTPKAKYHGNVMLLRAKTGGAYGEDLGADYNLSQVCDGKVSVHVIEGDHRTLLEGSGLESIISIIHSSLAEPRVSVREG

Fatty acid synthase [8] = target: T2, Fatty acid synthase; experiment: FAS thioesterase domain inhibitors, dose response, biochemical, endpoint fluorescence intensity, uHTS hits (AID 624327); format: functional;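 note: fluorescence from hydrolysis of an O-methyl fluorescein acyl ester substrate by the enzyme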
[9] = target: T3, Oxysterols receptor LXR-beta (Homo sapiens, UniProt P55055); experiment: LXR agonists, Gal4 luciferase reporter, dose response, counter-screen for ssDAF-12 agonist project, cell-based, luminescence, HEK293, S. stercoralis campaign (AID 720737); format: functional; conditions: read-out: IC50 (the source's name)
T3 sequence (P55055 whole entry): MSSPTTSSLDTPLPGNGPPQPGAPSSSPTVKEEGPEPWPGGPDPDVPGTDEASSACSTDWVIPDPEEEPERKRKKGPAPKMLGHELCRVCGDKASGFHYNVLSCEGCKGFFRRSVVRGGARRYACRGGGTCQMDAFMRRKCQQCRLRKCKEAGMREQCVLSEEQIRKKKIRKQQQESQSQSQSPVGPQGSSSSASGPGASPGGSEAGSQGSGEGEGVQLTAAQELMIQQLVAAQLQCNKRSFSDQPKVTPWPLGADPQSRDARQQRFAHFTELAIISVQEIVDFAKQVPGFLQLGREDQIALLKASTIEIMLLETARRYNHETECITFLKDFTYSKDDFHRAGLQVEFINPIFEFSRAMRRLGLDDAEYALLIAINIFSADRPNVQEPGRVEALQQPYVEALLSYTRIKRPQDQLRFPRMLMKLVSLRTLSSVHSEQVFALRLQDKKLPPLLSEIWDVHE

[10] = Luminescence-based cell-based high throughput dose response assay to identify activators of the DAF-12 from the parasite S. stercoralis (ssDAF-12).; format: functional
[11] = target: NAD-dependent protein deacylase sirtuin-5, mitochondrial (Homo sapiens, UniProt Q9NXA8); experiment: SIRT5 desuccinylase inhibitors, dose response, biochemical, fluorescence imaging, cherry-pick, set 5 (AID 720591);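 note: desuccinylation of succinyl peptide AMC substrate read as fluorescence after trypsin release; potency of inhibitors that lower fluorescence and may act on trypsin instead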
Chain of NAD-dependent protein deacylase sirtuin-5, mitochondrial (Q9NXA8 whole entry): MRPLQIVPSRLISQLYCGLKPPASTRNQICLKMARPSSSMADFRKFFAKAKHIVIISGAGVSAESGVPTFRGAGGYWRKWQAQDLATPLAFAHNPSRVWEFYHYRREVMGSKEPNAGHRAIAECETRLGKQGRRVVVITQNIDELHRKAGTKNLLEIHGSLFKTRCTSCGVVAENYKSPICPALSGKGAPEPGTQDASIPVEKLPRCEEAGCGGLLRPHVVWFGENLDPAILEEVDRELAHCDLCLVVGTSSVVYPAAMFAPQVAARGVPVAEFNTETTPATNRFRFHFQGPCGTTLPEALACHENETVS

[12] = HeLa 2N DNA content increase, dose response, cell-based, IC50 (AID 1117349); format: functional
[13] = HeLa 4N DNA content increase, dose response, cell-based, IC50 (AID 1117351); format: functional
[14] = CellTiter-Glo luminescent dose response of DLD-1 viability loss (AID 1117352); format: functional
[15] = cytotoxicity toward HT-29 cells – cell-based, CellTiter-Glo luminescence, IC50, dose response (AID 1117330); format: functional
[16] = SNU-C1 cell viability reduction, dose response, CellTiter-Glo luminescence (AID 1117323); format: functional, cell-based
[17] = cytotoxicity toward Colo320 cells – cell-based, CellTiter-Glo luminescence, IC50, dose response (AID 1117334); format: functional; conditions: COLO 320
[18] = Concentration-dependent survival of SW480 colon cancer line, luminescence detection with CellTiter-Glo, half-maximal inhibitory concentration (AID 1117338); format: functional
[19] = RKO cell viability reduction, dose response, CellTiter-Glo luminescence (AID 1117322); format: functional
[20] = HCT116 cell viability decrease, GSK3B pretreatment – CellTiter-Glo, IC50, dose response (AID 1117339); format: functional; conditions: HCT-116
[21] = cytotoxicity toward HCT116 cells – cell-based, CellTiter-Glo luminescence, IC50, dose response (AID 1117332); format: functional; conditions: HCT-116

Structure (SMILES): C[C@@H]1CN([C@H](C)CO)C(=O)c2cccc(NC(=O)C3CCCCC3)c2O[C@H]1CN(C)Cc1ccccc1
AC50 [1]: 8.1 µM (active)
AC50 [2]: 12.1 µM (active)
AC50 [3]: 31 µM (active)
AC50 [4]: 3.35 µM (active)

Structure (SMILES): O=C(NCCN1CCC2(CC1)C(=O)NCN2C(=O)c1cccc(F)c1)c1ccc2ccccc2c1
IC50 (Phospholipase D1): 8.76 µM (active)
IC50 (Phospholipase D2): 2.75 µM (active)

Structure (SMILES): CCC(C)n1c(=S)[nH]c2c(sc3ccc([N+](=O)[O-])cc32)c1=O (stereo not drawn)
CC50 [5]: 100 µM (active)
IC50 [6]: 73.3 µM (active)
IC50 (Fatty acid synthase [7]): 15.5 µM (active)
IC50 (Fatty acid synthase [8]): 17.1 µM (active)
EC50 [9]: > 67.5 µM (inactive)
IC50 [10]: > 67.5 µM (inactive)

AC50 [11]: > 30 µM (inactive)
Structure (SMILES): Cc1cccc(Cn2c(N(C)CCO)nc3c2c(=O)[nH]c(=O)n3C)c1

Structure (SMILES): C=C(C)[C@H]1Cc2c(ccc3c2O[C@@H]2COc4cc(OC)c(OC)cc4[C@@H]2C3=O)O1 [ROTENONE]
IC50 [12]: 0.311 µM (active)
IC50 [13]: 0.311 µM (active)

Structure (SMILES): ClC1=C(Cl)C2(Cl)C(CBr)CC1(Cl)C2(Cl)Cl (stereo not drawn) [BROMOCICLEN]
IC50 [14]: > 20 µM (inactive)
IC50 [15]: > 20 µM (inactive)
IC50 [16]: > 20 µM (inactive)
IC50 [17]: > 20 µM (inactive)
IC50 [18]: > 20 µM (inactive)
IC50 [19]: > 20 µM (inactive)
IC50 [20]: > 20 µM (inactive)
IC50 [21]: > 20 µM (inactive)
